Measured values published in patent US10196395B2, “Crystalline form alpha of IPI-145 and preparation method thereof” (CRYSTAL PHARMATECH CO., LTD., priority 2015, dated 2019).
“Also recorded” adds a separate entry of the source.

Assays:
[1] = Hygroscopicity assessment by dynamic vapor sorption (DVS); format: physicochemical; conditions: 25° C.; for Weight gain under 80% RH: DVS, 10 mg
Procedure: Dynamic Vapor Sorption (DVS) was measured via Dynamic Vapor Sorption Intrinsic manufacture by SMS's (Surface Measurement Systems Ltd.). Typical Parameters for DVS test were listed below.
Gas and flow rate: N2, 200 mL/min
RH range: 0% RH to 95% RH
Hygroscopicity of 10 mg Form α of the present invention was tested using dynamic vapor sorption (DVS).
About hygroscopicity characterization description and definition of hygroscopicity (Chinese Pharmacopoeia 2010 edition appendix XIXJ Drug hygroscopic test guidelines, test at 25° C.±1, 80% Relative Humidity) • deliquescent: sufficient water is absorbed to form a liquid; • very hygroscopic: increase in mass is equal to or greater than 15 percent; • hygroscopic: increase in mass is less than 15 percent and equal to or greater than 2 percent; • slightly hygroscopic: increase in mass is less than 2 percent and equal to or greater than 0.2 percent; • no or almost no hygroscopic: increase in mass is less than 0.2%.

[2] = Stability assessment: 1:1 mixture of Form α and anhydrous Form A stirred in tetrahydrofuran, solid tested by XRPD; format: physicochemical; conditions: 25° C. and 50° C.
Procedure: Form α of the present disclosure and anhydrous Form A in CN103648499A were mixed with a mass ratio of 1:1 and stirred in tetrahydrofuran at 5° C., 25° C. and 50° C. at a rate of 500 r/min for 24 h.

[3] = cited from earlier work

For C[C@H](Nc1ncnc2[nH]cnc12)c1cc2cccc(Cl)c2c(=O)n1-c1ccccc1 [Form α, (S)-3-(1-(9H-purin-6-ylamino)ethyl)-8-chloro-2-phenylisoquinolin-1(2H)-one], the “Hygroscopicity according to hygroscopic test guidelines” value ([1]; Chinese Pharmacopoeia 2010 definition, 80% Relative Humidity) was “slightly hygroscopic (increase in mass is less than 2 percent and equal to or greater than 0.2 percent)”, the “Weight gain under 80% RH” value ([1]; listed as Crystalline Form α of compound of Formula (I)) was 0.67% and the “Weight gain under 80% RH” value ([1]; listed as crystalline Form α) was 0.67%. For the same molecule, the “Stability relative to anhydrous Form A in CN103648499A” value ([2]; conclusion from stirring the mixture at 5° C.) was “more thermodynamic stable than Form A in CN103648499A; also recorded: more stable than anhydrous Form A in CN103648499A”.

In the case of C[C@H](Nc1ncnc2[nH]cnc12)c1cc2cccc(Cl)c2c(=O)n1-c1ccccc1 [Form A, (S)-3-(1-(9H-purin-6-ylamino)ethyl)-8-chloro-2-phenylisoquinolin-1(2H)-one], the “Form conversion on stirring” value ([2]; at 5° C., tetrahydrofuran, 24 h) is reported as “converted to Form α”.

For C[C@H](Nc1ncnc2[nH]cnc12)c1cc2cccc(Cl)c2c(=O)n1-c1ccccc1 [Form C, (S)-3-(1-(9H-purin-6-ylamino)ethyl)-8-chloro-2-phenylisoquinolin-1(2H)-one], the Crystallinity after grinding [3] is listed as “decrease or turns into amorphous”.
